Laboratory results taken from the NIST ThermoML archive (doi:10.1016/j.fluid.2005.03.026).

Legend:
[1] = molar heat capacity at constant pressure; details: 101.3 kPa, Liquid, Small sample (50 mg) DSC
[2] = molar heat capacity at constant pressure; xn = mol fraction of the nth substance listed; details: 101.3 kPa, Liquid, Small sample (50 mg) DSC

CCCCCCCCCC [decane]
[1]
Details | molar heat capacity at constant pressure [J/K/mol]
288.15 K | 310.09
298.15 K | 315.04
308.15 K | 320.03

CCCCCCCCCC [decane] + COC(=O)OC
molar heat capacity at constant pressure [J/K/mol], [2]
Details | 288.15 K | 298.15 K | 308.15 K
x2 = 0 | 310.09 | 315.04 | 320.03
x2 = 0.0486 | 302.45 | 307.21 | 311.97
x2 = 0.1015 | 294.55 | 298.95 | 303.55
x2 = 0.1491 | 287.67 | 291.87 | 296.24
x2 = 0.198 | 280.61 | 284.73 | 288.82
x2 = 0.3041 | 266.76 | 269.88 | 273.33
x2 = 0.4015 | 255.05 | 256.83 | 259.45
x2 = 0.4497 | 250.05 | 250.5 | 252.64
x2 = 0.5505 | 242.42 | 236.43 | 238.36
x2 = 0.6011 | 237.62 | 229.81 | 230.9
x2 = 0.6454 | 231.62 | 223.97 | –
x2 = 0.6945 | 223.46 | 216.47 | 216.49
x2 = 0.7943 | 202.82 | 198.92 | 199.64
x2 = 0.8464 | – | 189.34 | 190.56
x2 = 0.8975 | 179.17 | 180.34 | 181.8
x2 = 0.949 | 170.97 | 172.02 | 173.51

COC(=O)OC [dimethyl carbonate]
[1]
Details | molar heat capacity at constant pressure [J/K/mol]
288.15 K | 163.61
298.15 K | 164.65
308.15 K | 165.92

COC(=O)OC [dimethyl carbonate] + Cc1ccc(C)cc1
[2], x1 = 1
Details | molar heat capacity at constant pressure [J/K/mol]
288.15 K | 163.61
298.15 K | 164.65
308.15 K | 165.92
